# Measured values reported in patent publication US11564913B2, “Compositions and methods for treating cancer” (Children's Hospital Medical Center, priority 2019, dated 2023).
# Key:
# [1] = tested on: active Cdc42 in MDA-MB-231 cells; experiment: Active GTPase pull-down (GST-PAK-GBD); type: cell-based, human; details: 0-3 μM, 1 h
# Protocol: (§1) FIG. 5: Cytoskeletal changes induced by IODVA1 treatment. IODVA1 inhibits lamellipodia and circular dorsal ruffle (CDR) formation in MDA-MB-231 cells and decreases Rac activation. (A) IODVA1 inhibits EGF-induced lamellipodia formation in MDA-MB-231 cells. MDA-MB-231 cells were plated on fibronectin-coated coverslips, serum starved for 4 h, incubated with the indicated concentrations of IODVA1 for 1 h, then EGF (50 ng/mL) stimulated, fixed and stained with Phalloidin Alexa Fluor 594 (F-Actin, pseudocolored red) and DAPI (nuclei, pseudocolored blue). […] The percentage of cells with CDRs was counted as the number of cells with CDRs normalized to the total number of cells in the field. Around 150 cells were counted per condition per experiment. Cells with multiple CDRs were counted only once. […] Levels of active Rac (RacGTP, % of control), active Cdc42 (Cdc42GTP, % of control) and active RhoA (RhoAGTP, % of control) were quantified using ImageJ and ImageLab and show combined data as mean±s.e.m. from at least 3 independent experiments. […]
# (§2) To confirm that IODVA1 interferes with Rac activation, applicants checked the levels of active Rac and its downstream effector PAK1/2. MDA-MB-231 cells were incubated with IODVA1 (0-3 μM) for 1 h and levels of GTP-bound active Rac were measured by GST-PAK-GBD pull-downs and quantified (FIG. 5C). […]
# [2] = tested on: active Rac (RacGTP) in MDA-MB-231 cells; experiment: Active GTPase pull-down (GST-PAK-GBD); type: cell-based, human; details: 0-3 μM, 1 h, dose-dependent
# Protocol: as §1, §2
# [3] = tested on: H2122 lung cancer xenografts; experiment: H2122 xenograft mouse model; type: in vivo, mice
# Source text: FIG. 8: IODVA1 inhibits tumor growth of human breast and lung cancer xenografts. […] (B) Tumors were also stained for Ki67 as a proliferation marker (top panel). […] (C) Quantification of Ki67-positive and cleaved caspase 3-positive cells of tumors shown in (B). […] Animals began treatment when tumors became detectable at 10 days post-injection (*, p<0.05). […] IODVA1 treated tumors also had fewer proliferating cells compared to control vehicle treated animals, as determined by immunohistochemical staining for Ki67 (bottom) and increased intratumoral fibrosis. Representative images were taken at 100× magnification, scale bar is 200 μm. (F) Quantification of Ki67+ cells in control and IODVA1 treated tumors shown in (E).
# The lung cancer mouse model was generated by injecting the lung cancer H2122 cells at the right and left flanks of NSG mice. These cells harbor the KRAS^G12C mutation and form aggressive tumors. Mice were treated with IODVA1 or with vehicle control every other day for 14 days. […]
# Human lung cancer cell line NCI-H2122 (ATCC) harboring biallelic KRAS^G12C mutations were cultured in RPMI-1640 supplemented with 10% FBS. […] Tumor size was measured using digital calipers and tumor volume estimated using the formula (length×width^2)/2. […] A minimum of 20 random fields were used for quantification. […]
# [4] = tested on: pPAK and pBAD in p190-BCR-ABL Ba/F3 cells; experiment: Immunoblot for pPAK(T423) and pBAD(S136); type: cell-based, murine; details: 3 μM, within minutes of cell exposure
compound,measurement,setting,value
"OC1(c2ccccn2)N=C(Nc2nc3ccccc3[nH]2)N=C1c1ccccn1 (stereo not drawn) [IODVA1, (Z)-2-((1H-benzo[d]imidazol-2-yl)imino)-4,5-di(pyridin-2-yl)-2,5-dihydro-1H-imidazol-5-ol]",levels of active Cdc42,[1],decreased but only at the highest IODVA1 concentration
same,levels of active Rac,[2],significantly decreases
same,tumor volume,[3]; IP 250 μl of 1 mM every other day for 14 days,significant decrease
same,number of Ki67-positive tumor cells,[3]; IP every other day for 14 days,significant decrease
same,inhibitory phosphorylation of BAD Ser136,[4],decreases
same,pPAK,[4],decreases
